Assay results taken from PubChem BioAssay (NCI).
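1) Cells in 96-well plates. 2) Compound, 48 h, 5 concentrations. 3) Linear interpolation between surrounding doses. 4) Unreached endpoint = highest concentration. TGI denotes the concentration required for complete inhibition of growth.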

Tests used:
Assay in all cases: inhibition of tumour cell growth, NCI panel, 48 h
[1] = tested on: ACHN renal
[2] = tested on: BT-549 breast
[3] = tested on: HCT-15 colon
[4] = tested on: HL-60(TB) leukemia
[5] = tested on: MALME-3M melanoma
[6] = tested on: MOLT-4 leukemia
[7] = tested on: NCI-H460 lung
[8] = tested on: RPMI-8226 leukemia
[9] = tested on: SF-539 CNS
[10] = tested on: SR leukemia
[11] = tested on: UACC-62 melanoma

SMILES | TGI [1] [µM] | TGI [2] [µM] | TGI [3] [µM] | TGI [4] [µM] | TGI [5] [µM] | TGI [6] [µM] | TGI [7] [µM] | TGI [8] [µM] | TGI [9] [µM] | TGI [10] [µM] | TGI [11] [µM]
CC(C)(C)OC(=O)N1C(C2=COc3ccccc3O2)=COc2ccccc21 | 75.3 | 71.4 | > 100 | 45.5 | 58.1 | 54 | > 100 | 43.5 | 41.2 | 53.3 | 32.6
O=C1C(NS(=O)(=O)c2ccccc2)=C(n2cnc3ccccc32)C(=O)c2ccccc21 | > 100 | > 100 | > 100 | > 100 | > 100 | > 100 | > 100 | > 100 | > 100 | > 100 | > 100
N#CS/C(C(Cl)=C(Cl)Cl)=C(/Cl)[N+](=O)[O-] | 3.1 | 4.92 | 6.59 | 0.512 | 3.25 | 2.19 | 33.2 | 4.25 | 16.1 | 2.15 | 17.5
Oc1c(C(O)(c2ccccc2)c2ccc3ccccc3c2O)ccc2ccccc12 | 23.3 | 42.3 | 25.9 | 13.9 | 26.4 | 5.56 | 22.3 | 5.32 | 36.1 | 10.7 | 22.8
NS(=O)(=O)c1nnc(NC(=O)CCC(=O)O)s1 | > 100 | > 100 | > 100 | > 100 | > 100 | > 100 | > 100 | > 100 | > 100 | > 100 | > 100
CCOC(=O)C(SCCO)C(C(=O)OCC)n1ccc(N)nc1=O (stereo unspecified) | > 100 | > 100 | > 100 | > 100 | > 100 | > 100 | > 100 | > 100 | > 100 | > 100 | > 100
c1ccc(Cc2cccc3cc(-c4ccc(-c5ccccc5)cc4)[nH]c23)cc1 | > 100 | > 100 | > 100 | > 100 | 54 | > 100 | > 100 | > 100 | > 100 | 47 | > 100
CC(=O)OCC1C(C(C)OC(C)=O)CCC2C1CCC1(C)C(OC(C)=O)CCC21 (stereo unspecified) | 28.3 | 24.5 | 36.5 | 52.6 | 37 | 41.8 | 31.8 | 69.9 | 32.6 | > 100 | 26.3
CCCCC1Cc2cc(O)ccc2-c2n1c1cc(O)ccc1[n+]2C (stereo unspecified) (tested in a mixture with another compound) | 98.7 | > 100 | > 88.3 | > 86.4 | 73.4 | > 100 | > 100 | 75.1 | > 100 | > 100 | > 81.5
CC1=C(C)C(=O)OC(C(C)(O)C2(O)CCC3(O)C4CC(Cl)C5(O)C(O)C=CC(=O)C5(C)C4CCC32C)C1 (stereo unspecified) | > 100 | > 100 | > 100 | 9.04 | > 100 | 32.8 | > 100 | 47.3 | > 100 | 37.1 | > 100
CCCCCCCCCc1cc(O)c(O)cc1CCCCCCCCC | > 10 | > 10 | > 10 | > 10 | > 10 | > 10 | > 10 | > 10 | > 10 | > 10 | > 10
